Where a name gives a salt, the structure may show the parent alone.
Molecular target: T1, protein farnesyltransferase (Rattus norvegicus, UniProt Q02293+Q04631)
T1 construct: The enzyme is purified according to Reiss, Y., et al., Cell, 62: 81-88 (1990), utilizing steps one through three; from tissue; host or cells: rat brain
Assay: Inhibition of farnesyltransferase (scintillation proximity assay, rat brain enzyme, biotin-K Ras B fragment substrate)
Format: biochemical
Settings: for % inhibition of farnesyltransferase at 1 × 10^-6 M: 1 × 10^-6 M (Table 2)
How it was run: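 Enzyme from rat brain, partly purified (steps one to three), assayed by SPA kit using 0.1 mM final biotin-K Ras B peptide as prenyl acceptor rather than biotin-lamin. Activity given as percent inhibition.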

T1 sequence (Q02293 whole entry, one chain of several): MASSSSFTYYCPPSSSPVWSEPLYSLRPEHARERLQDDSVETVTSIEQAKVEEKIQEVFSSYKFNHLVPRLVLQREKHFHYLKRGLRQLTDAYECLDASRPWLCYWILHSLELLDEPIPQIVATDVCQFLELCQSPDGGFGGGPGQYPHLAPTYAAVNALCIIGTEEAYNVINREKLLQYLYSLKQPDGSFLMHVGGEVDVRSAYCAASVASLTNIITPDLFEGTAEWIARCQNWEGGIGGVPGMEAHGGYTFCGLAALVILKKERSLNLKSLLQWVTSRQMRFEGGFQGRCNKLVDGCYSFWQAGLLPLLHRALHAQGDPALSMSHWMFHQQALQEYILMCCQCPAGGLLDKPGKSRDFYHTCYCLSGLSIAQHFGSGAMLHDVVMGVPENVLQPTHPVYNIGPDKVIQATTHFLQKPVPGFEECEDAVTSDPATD

Compound | % inhibition of farnesyltransferase at 1 × 10^-8 M (1 × 10^-8 M (Table 4)) [%] | % inhibition of farnesyltransferase at 1 × 10^-7 M (1 × 10^-7 M (Table 3)) [%] | also measured
CSCC[C@H](NC(=O)c1ccc(CN[C@@H](CC2CCCCC2)C(=O)N2CCCCC2)cc1-c1ccccc1C)C(=O)O [Example 887] | 92 | – | –
CSCC[C@H](NC(=O)c1ccc(CON=C(Cc2ccccc2)Cc2ccccc2)cc1-c1ccccc1C)C(=O)O [Example 888, N-[4-N-(1,3-Diphenylpropan-2-yl)iminooxymethyl-2-(2-methylphenyl)benzoyl]-methionine lithium salt] | – | – | inhibition at 0.01 µM (read-out: % inhibition of farnesyltransferase at 1 × 10^-8 M, 1 × 10^-8 M (Table 4)): 86%
CSCC[C@H](NC(=O)c1ccc(COCC(CC2CCCCC2)CC2CCCCC2)cc1-c1ccccc1C)C(=O)O [Example 889] | – | – | % inhibition of farnesyltransferase at 1 × 10^-6 M: 95%
CSCC[C@H](NC(=O)c1ccc(COCc2cnco2)cc1-c1ccccc1C)C(=O)[O-].[Li+] [Example 891] | – | 94 | –
CSCC[C@H](NC(=O)c1ccc(COCc2cnc(-c3ccccc3Cl)o2)cc1-c1ccccc1C)C(=O)[O-].[Li+] [Example 892] | 59 | – | –
CSCC[C@H](NC(=O)c1ccc(COCc2cnc(-c3cccc(Cl)c3)o2)cc1-c1ccccc1C)C(=O)[O-].[Li+] [Example 893] | – | 87 | –
CSCC[C@H](NC(=O)c1ccc(COCc2cnc(-c3ccc(Cl)cc3)o2)cc1-c1ccccc1C)C(=O)[O-].[Li+] [Example 894] | – | 89 | –
CSCC[C@H](NC(=O)c1ccc(COCc2cnc(C(C)(C)C)s2)cc1-c1ccccc1C)C(=O)[O-].[Li+] [Example 895] | – | 92 | –
COc1ncc(COCc2ccc(C(=O)N[C@@H](CCSC)C(=O)O)c(-c3ccccc3C)c2)s1 [Example 896] | – | 96 | –
CSCC[C@H](NC(=O)c1ccc(COCc2cnc(-c3ccccc3Cl)s2)cc1-c1ccccc1C)C(=O)[O-].[Li+] [Example 897] | 76 | – | –
CSCC[C@H](NC(=O)c1ccc(COCc2cnc(-c3cccc(F)c3)s2)cc1-c1ccccc1C)C(=O)[O-].[Li+] [Example 898] | 82 | – | –
CSCC[C@H](NC(=O)c1ccc(COCc2cnc(-c3cccc(Cl)c3)s2)cc1-c1ccccc1C)C(=O)[O-].[Li+] [Example 899] | 88 | – | –
CSCC[C@H](NC(=O)c1ccc(COCc2cnc(-c3ccc(F)cc3)s2)cc1-c1ccccc1C)C(=O)O [Example 900] | – | 95 | –
CSCC[C@H](NC(=O)c1ccc(COCc2cnc(-c3ccc(Cl)cc3)s2)cc1-c1ccccc1C)C(=O)[O-].[Li+] [Example 901] | 84 | – | –
CSCC[C@H](NC(=O)c1ccc(NC(=O)OCc2cncs2)cc1-c1ccccc1C)C(=O)O [Example 902] | – | – | % inhibition of farnesyltransferase at 1 × 10^-6 M: 85%
CSCC[C@H](NC(=O)c1ccc(COCc2cc(-c3ccc(Cl)cc3)co2)cc1-c1ccccc1C)C(=O)[O-].[Li+] [Example 904] | 85 | – | –
CCSC[C@H](CC(C)C)NCc1ccc(C(=O)N[C@@H](CCSC)C(=O)O)c(-c2ccccc2C)c1 [Example 905] | 86 | – | –
CCSC[C@H](CC(C)C)N(C)Cc1ccc(C(=O)N[C@@H](CCSC)C(=O)O)c(-c2ccccc2C)c1 [Example 906] | – | 88 | –
CSCC[C@H](NC(=O)c1ccc(CN(C)C(CC2CCCCC2)CC2CCCCC2)cc1-c1ccccc1C)C(=O)O [Example 907] | 79 | – | –
CSCC[C@H](NC(=O)c1ccc(CN(CC(C)C)C(CC2CCCCC2)CC2CCCCC2)cc1-c1ccccc1C)C(=O)O [Example 908] | – | – | % inhibition of farnesyltransferase at 1 × 10^-6 M: 88%
CSCC[C@H](NC(=O)c1ccc(CN(C(C)=O)C(CC2CCCCC2)CC2CCCCC2)cc1-c1ccccc1C)C(=O)O [Example 909] | 79 | – | –

Compound | % inhibition of farnesyltransferase at 1 × 10^-8 M (1 × 10^-8 M (Table 4)) [%] | % inhibition of farnesyltransferase at 1 × 10^-7 M (1 × 10^-7 M (Table 3)) [%] | also measured
CSCC[C@H](NC(=O)c1ccc(CN(C(=O)c2ccccc2)C(CC2CCCCC2)CC2CCCCC2)cc1-c1ccccc1C)C(=O)O [Example 910] | – | – | % inhibition of farnesyltransferase at 1 × 10^-6 M: 42%
CSCC[C@H](NC(=O)c1ccc(CN(C(CC2CCCCC2)CC2CCCCC2)S(=O)(=O)c2ccccc2)cc1-c1ccccc1C)C(=O)O [Example 911] | – | – | % inhibition of farnesyltransferase at 1 × 10^-6 M: 65%
CCCCN(CCCC)C(=O)CNCc1ccc(C(=O)N[C@@H](CCSC)C(=O)O)c(-c2ccccc2C)c1 [Example 912] | – | 85 | –
CCCCN(CCCC)C(=O)CN(C)Cc1ccc(C(=O)N[C@@H](CCSC)C(=O)O)c(-c2ccccc2C)c1 [Example 913] | – | 89 | –
CSCC[C@H](NC(=O)c1ccc(CNCC(=O)N(Cc2ccccc2)Cc2ccccc2)cc1-c1ccccc1C)C(=O)O [Example 914] | – | 91 | –
CCCCS(=O)(=O)N(CCC1CCCCC1)Cc1ccc(C(=O)N[C@@H](CCSC)C(=O)O)c(-c2ccccc2C)c1 [Example 916] | 96 | – | –
CCCCN(CCCC)Cc1ccc(C(=O)N[C@@H](CCSC)C(=O)O)c(-c2ccccc2C)c1 [Example 917] | – | 78 | –
CSCC[C@H](NC(=O)c1cc(Cc2ccccc2)c(COCc2ccccc2)cc1-c1ccccc1C)C(=O)O [Example 923] | – | – | % inhibition of farnesyltransferase at 1 × 10^-6 M: 78%
CSCC[C@H](NC(=O)c1cc(Cc2ccccc2)c(COCc2ccco2)cc1-c1ccccc1C)C(=O)O [Example 924] | – | – | % inhibition of farnesyltransferase at 1 × 10^-6 M: 77%
CSCC[C@H](NC(=O)c1cc(Cc2ccccc2)c(COCCCc2ccccc2)cc1-c1ccccc1C)C(=O)O [Example 925] | – | – | % inhibition of farnesyltransferase at 1 × 10^-6 M: 87%
CCCCS(=O)(=O)N(CCCc1ccccc1)Cc1ccc(C(=O)N[C@@H](CCSC)C(=O)O)c(-c2ccccc2C)c1 [Example 927] | 74 | – | –
CCCCN(CCc1ccccc1)Cc1ccc(C(=O)N[C@@H](CCSC)C(=O)O)c(-c2ccccc2C)c1 [Example 928] | 84 | – | –
CCCC(CCC)NOCc1ccc(C(=O)N[C@@H](CCSC)C(=O)O)c(-c2ccccc2C)c1 [Example 929, N-[4-(N-Hept-4-ylaminooxymethyl)-2-(2-methylphenyl)benzoyl]methionine] | – | – | inhibition at 0.1 µM (read-out: % inhibition of farnesyltransferase at 1 × 10^-7 M, 1 × 10^-7 M (Table 3)): 81%
CSCC[C@H](NC(=O)c1ccc(COCc2ccccc2Cl)cc1-c1ccccc1C)C(=O)[O-].[Li+] [Example 930] | 66 | – | –
COc1ccccc1COCc1ccc(C(=O)N[C@@H](CCSC)C(=O)[O-])c(-c2ccccc2C)c1.[Li+] [Example 931] | – | 98 | –
COc1cccc(COCc2ccc(C(=O)N[C@@H](CCSC)C(=O)[O-])c(-c3ccccc3C)c2)c1.[Li+] [Example 932] | 60 | – | –
CSCC[C@H](NC(=O)c1ccc(COCc2ccc(Cl)cc2)cc1-c1ccccc1C)C(=O)[O-].[Li+] [Example 933] | – | 91 | –
CSCC[C@H](NC(=O)c1ccc(COCc2cccc(Cl)c2)cc1-c1ccccc1C)C(=O)[O-].[Li+] [Example 934] | 71 | – | –
COc1ccc(COCc2ccc(C(=O)N[C@@H](CCSC)C(=O)[O-])c(-c3ccccc3C)c2)cc1.[Li+] [Example 935] | – | 72 | –
CSCC[C@H](NC(=O)c1ccc(CNCc2ccccc2)cc1-c1ccccc1)C(=O)O.Cl [Example 936] | – | – | % inhibition of farnesyltransferase at 1 × 10^-6 M: 69%
COc1ccc(CCOCc2ccc(C(=O)N[C@@H](CCSC)C(=O)O)c(-c3ccccc3C)c2)cc1 [Example 937] | – | – | % inhibition of farnesyltransferase at 1 × 10^-6 M: 95%

From US6221865A, “Inhibitors of protein isoprenyl transferases” (priority 1998, dated 2001)
